Laboratory results taken from patent US20110224151A1, “Polymeric Micelle Composition for Treatment of Resistant Cancer and Preparation Method of the Same” (SAMYANG CORPORATION, priority 2008, published 2011).
Converted amounts (≈) assume the structure as drawn.

Test system: DLD-1 colon cancer cells
Assay: Inhibition of P-glycoprotein: paclitaxel cytotoxicity with and without cyclosporin
Assay type: cell-based, human
Conditions: for IC50: Homo sapiens

CC(=O)O[C@H]1C(=O)[C@@]2(C)[C@H]([C@H](OC(=O)c3ccccc3)[C@]3(O)C[C@H](OC(=O)[C@H](O)[C@@H](NC(=O)c4ccccc4)c4ccccc4)C(C)=C1C3(C)C)[C@]1(OC(C)=O)CO[C@@H]1C[C@@H]2O [paclitaxel]
decrease of IC50 with cyclosporin as compared to paclitaxel alone (1.88 μg/mL cyclosporin, DLD-1 cells): 15 times
IC50 (DLD-1, DLD-1 cells treated with 1.88 μg/mL cyclosporin): 0.011 µg/mL
IC50 (DLD-1, paclitaxel administered alone, DLD-1 cells): 0.16 µg/mL (≈ 0.187 µM)
